Data set [1] can be described thus: Half life in rat at 3 mg/kg, iv. In kind it is ADME, organism-based. Set-up: dose 3 mg/kg, route intravenous. To be noted: in vivo.
Data set [2] is described as follows: Oral bioavailability in rat at 3 mg/kg. Conditions: in vivo. In kind it is ADME, organism-based.
Data set [3] concerns Hepatitis C virus. Kind of data set: Antiviral activity against HCV1a H77 infected in human HuH7 cells assessed as inhibition of viral replication after 4 days by luciferase reporter gene assay. Conditions: genotype 1a H77, Huh-7, 96 h. In kind it is functional, organism-based, Hepacivirus hominis. A general note: A reporter such as luciferase makes a cellular process visible.

Data set [4] can be described thus: Cmax in rat at 3 mg/kg, po. It counts as ADME, organism-based. Set-up: dose 3 mg/kg, route oral. Conditions: in vivo.
Data set [5] is described as follows: Tmax in rat at 3 mg/kg, po. It counts as ADME, organism-based. Set-up: dose 3 mg/kg, route oral. To be noted: in vivo.
Data set [6] can be described thus: AUC in rat at 3 mg/kg, po. In kind it is ADME, organism-based. Set-up: dose 3 mg/kg, route oral. To be noted: plasma.
A short description of data set [7]: Metabolic stability in human liver microsomes assessed as compound remaining after 30 mins. It counts as ADME. Conditions: read-out: Stability.
Data set [8] has as its system Hepatitis C virus. Description: Ratio of EC50 for HCV1a H77 infected in human HuH7 cells in presence of 40% human plasma to EC50 for HCV1a H77 infected in human HuH7 cells in absence of 40% human plasma. It counts as functional, Hepacivirus hominis, genotype 1a H77, Huh-7.
The nature of data set [9]: Metabolic stability in rat liver microsomes assessed as compound remaining after 30 mins. To be noted: read-out: Stability. In kind it is ADME. A general note: Microsomes from liver hold many membrane-bound enzymes, among them those of drug oxidation.
Data set [10] in a line: Lipophilicity, log D of the compound at pH 7.4 by HPLC analysis. In kind it is physicochemical. To be noted: buffer.
Data set [11] is described as follows: Clearance in rat at 3 mg/kg, iv. Set-up: dose 3 mg/kg, route intravenous. It counts as ADME, organism-based. To be noted: in vivo.
Data set [12] concerns Hepatitis C virus. Description: Antiviral activity against HCV1b Con1 infected in human HuH7 cells assessed as inhibition of viral replication after 4 days by luciferase reporter gene assay. Conditions: isolate Con1, Huh-7, 96 h. It counts as functional, organism-based, Hepacivirus hominis.
Data set [13] deals with Hepatitis C virus. Kind of data set: Antiviral activity against HCV1a H77 infected in human HuH7 cells assessed as inhibition of viral replication after 4 days by luciferase reporter gene assay in presence of 40% human plasma. Conditions: genotype 1a H77, Huh-7, Plasma, 96 h. It counts as functional, organism-based, Hepacivirus hominis.
The test system of data set [14] is Hepatitis C virus. Description: Antiviral activity against HCV1b Con1 infected in human HuH7 cells assessed as inhibition of viral replication after 4 days by luciferase reporter gene assay in presence of 40% human plasma. In kind it is functional, organism-based, Hepacivirus hominis. To be noted: isolate Con1, Huh-7, Plasma, 96 h.
Data set [15] relates to Hepatitis C virus. Kind of data set: Ratio of EC50 for HCV1b Con1 infected in human HuH7 cells in presence of 40% human plasma to EC50 for HCV1b Con1 infected in human HuH7 cells in absence of 40% human plasma. It counts as functional, Hepacivirus hominis, isolate Con1, Huh-7.
The nature of data set [16]: Half life in rat at 3 mg/kg, po. Set-up: dose 3 mg/kg, route oral. Conditions: in vivo. It counts as ADME, organism-based.
A short description of data set [17]: Kinetic solubility of the compound in 10 mM of phosphate buffer at pH 7.2 by CLND method. In kind it is physicochemical. To be noted: read-out: Kinetic_solubility.
Data set [18] is described as follows: Volume of distribution at steady state in rat at 3 mg/kg, iv. Conditions: in vivo, read-out: Vdss. It counts as ADME, organism-based. Set-up: dose 3 mg/kg, route intravenous.

The values that follow come from ChEMBL document CHEMBL3124779, “Discovery of ABT-267, a pan-genotypic inhibitor of HCV NS5A” (J Med Chem, 2014).

pEC50: −log10 of the molar value. ≈ marks a conversion by molar mass, not a printed value.

Broadly, the half-life is the time needed for the level to fall by half in the phase considered. A high value points to slow loss. A word on the bioavailability: it is the share of a dose that reaches the circulation, judged against a reference dose that is usually intravenous. A higher bioavailability goes with good availability. For orientation: pEC50 means −log10 of the EC50, conventionally taken in molar units. For orientation: Cmax means the maximum level reached in the sampled fluid or tissue. Usually Tmax stands for the time from dosing to the highest level. For orientation: AUC means the area under the concentration-time curve, a measure of exposure. Higher therefore signals more exposure. As usually defined, the logD is lipophilicity at a set pH, counting ionised and neutral species. A word on the clearance: it is the rate of elimination divided by the concentration. Low values mean inefficient removal, high ones efficient removal.

As to `COC(=O)N[C@H](C(=O)N1CCC[C@H]1C(=O)Nc1ccc([C@@H]2CC[C@@H](c3ccc(NC(=O)[C@@H]4CCCN4C(=O)[C@@H](NC(=O)OC)C(C)C)cc3)N2c2ccc(F)cc2)cc1)C(C)C`, the half-life in data set [1] is 2.6 h; in [16], 3 h. The same compound showed a bioavailability in data set [2] of 22%. For the same compound, the pEC50 in [3] is 9.40; in [12], 10.92; in [13], 8.43; in data set [14], 9.74. The peak level in [4] (Cmax) was 190 ng/mL. In data set [5], the Tmax is 1 h. For the same compound, the AUC in data set [6] worked out at 750 ng·h/mL. Further, the remaining at 0.5 h in data set [7] stood at 44%; in data set [9] it was 49%. For the same compound, the “Ratio EC50” value in data set [8] was 9; in [15], 15. The logD in data set [10] was 4.6. In [11], this compound had a clearance of 15 mL/min/kg. The solubility kinetic in [17] is 4.1 µM (≈ 3.51 µg/mL). Further, the Vd in data set [18] amounted to 2.4 L/kg.
With `CC[C@H](C)[C@H](NC(=O)OC)C(=O)N1CCC[C@H]1C(=O)Nc1ccc([C@@H]2CC[C@@H](c3ccc(NC(=O)[C@@H]4CCCN4C(=O)[C@@H](NC(=O)OC)[C@@H](C)CC)cc3)N2c2ccc(F)cc2)cc1` (mixture of isomers), the pEC50 in data set [3] is 8.88; in data set [12], 10.52; in data set [13], 8.01; in data set [14], 9.77. The “Ratio EC50” value in [8] is reported as 7; in data set [15] it was 6.
In the case of `CC[C@@H](C)[C@H](NC(=O)OC)C(=O)N1CCC[C@H]1C(=O)Nc1ccc([C@@H]2CC[C@@H](c3ccc(NC(=O)[C@@H]4CCCN4C(=O)[C@@H](NC(=O)OC)[C@H](C)CC)cc3)N2c2ccc(F)cc2)cc1` (mixture of isomers), the pEC50 in data set [3] is 9.69; in data set [12] it was 11.00; in data set [13], 8.18; in data set [14], 10.05. Further, the “Ratio EC50” value in data set [8] is 32; in [15], 9.
`COC(=O)N[C@H](C(=O)N1CCC[C@H]1C(=O)Nc1ccc([C@@H]2CC[C@@H](c3ccc(NC(=O)[C@@H]4CCCN4C(=O)[C@@H](NC(=O)OC)C(C)C)cc3)N2c2ccc(C)cc2)cc1)C(C)C` (mixture of isomers): the pEC50 in data set [3] is 9.14; in data set [12] it was 10.40; in [13], 8.36; in [14], 9.69. The entries for the “Ratio EC50” value in data set [8] and in [15] were 6 and 5, respectively.
Turning to `COC(=O)N[C@H](C(=O)N1CCC[C@H]1C(=O)Nc1ccc([C@@H]2CC[C@@H](c3ccc(NC(=O)[C@@H]4CCCN4C(=O)[C@@H](NC(=O)OC)C(C)C)cc3)N2c2ccc(Cl)cc2)cc1)C(C)C` (mixture of isomers), the pEC50 in data set [3] is 9.43; in data set [12], 10.52; in data set [13] it was 8.39; in data set [14] it was 9.52. Besides, the “Ratio EC50” value in data set [8] is given as 11; in data set [15] it was 10.
As for `COC(=O)N[C@H](C(=O)N1CCC[C@H]1C(=O)Nc1ccc([C@@H]2CC[C@@H](c3ccc(NC(=O)[C@@H]4CCCN4C(=O)[C@@H](NC(=O)OC)C(C)C)cc3)N2c2ccc(O)cc2)cc1)C(C)C` (mixture of isomers), the pEC50 in data set [3] was 7.64; in data set [12], 8.18; in data set [13] it was 6.62; in [14], 7.23. Also, the “Ratio EC50” value was found to be 11 in data set [8] and 9 in data set [15].
For the compound `COC(=O)N[C@H](C(=O)N1CCC[C@H]1C(=O)Nc1ccc([C@@H]2CC[C@@H](c3ccc(NC(=O)[C@@H]4CCCN4C(=O)[C@@H](NC(=O)OC)C(C)C)cc3)N2c2ccc(C(C)C)cc2)cc1)C(C)C` (mixture of isomers), the pEC50 in data set [3] was 10.48; in [12], 11.10; in [13], 9.15; in data set [14] it was 10.07. In addition, the “Ratio EC50” value in data set [8] is recorded as 21; in data set [15], 11.
